The data set can be described thus: Cytotoxicity against rat 3Y1 cells incubated for 2 days by MTT assay. The data set is classed as toxicity, cell-based. In general terms: Formazan colour is commonly taken as a measure of viable cells.

The term IC50 denotes the concentration needed to halve the response being measured. A higher IC50 goes with a need for much substance.

Turning to `C/C=C1\NC(=O)[C@H](Cc2ccccc2)NC(=O)[C@@H]([C@@H](C)CC)NC(=O)[C@@H]([C@@H](C)CC)NC(=O)[C@H](NC(=O)[C@@H](CC(C)C)NC(=O)[C@H](CCCN)NC(=O)[C@H]2CCCN2C(=O)[C@H](NC(=O)[C@@H](NC(=O)[C@@H](NC(=O)[C@H](NC(=O)CCC)[C@@H](C)O)C(C)C)C(C)C)C(C)C)[C@@H](C)OC(=O)[C@H](C(C)C)NC1=O`, the IC50 at 2 days came out at 10 µM.
As for `C/C=C1\NC(=O)[C@H](Cc2ccccc2)NC(=O)[C@@H]([C@@H](C)CC)NC(=O)[C@@H]([C@@H](C)CC)NC(=O)[C@H](NC(=O)[C@@H](CC(C)C)NC(=O)[C@H](CCCN)NC(=O)[C@H]2CCCN2C(=O)[C@H](NC(=O)[C@@H](NC(=O)[C@@H](NC(=O)[C@H](NC(=O)C=C(C)C)[C@@H](C)O)C(C)C)C(C)C)C(C)C)[C@@H](C)OC(=O)[C@H](C(C)C)NC1=O`, the figure is 7.4 µM.

The record behind these values is ChEMBL document CHEMBL5390259, “Structure Determination of Kahalalide Analogues Based on Metagenomic Analysis of a Bryopsis sp. Marine Green Alga” (J Nat Prod, 2023).
